According to patent publication US7521441B2, “Cyclopropyl fused indolobenzazepine HCV NS5B inhibitors” (Bristol-Myers Squibb Company, priority 2006, dated 2009):
Like-named read-outs stand apart in the source and are kept apart here.

How the values were obtained:
[1] = molecular target: T1, HCV NS5B RdRp genotype 1b (Hepatitis C virus genotype 1b, UniProt Q9WMX2); assay: Modified HCV NS5B RdRp enzyme assay (preincubation protocol); assay type: biochemical; conditions: HCV NS5B genotype 1b
T1 construct: The protein was expressed with an 18 amino acid C-terminal truncation to enhance the solubility; made in house; host or cells: E. coli BL21(DE3), pET21a vector
T1 sequence (Q9WMX2 2420-2992): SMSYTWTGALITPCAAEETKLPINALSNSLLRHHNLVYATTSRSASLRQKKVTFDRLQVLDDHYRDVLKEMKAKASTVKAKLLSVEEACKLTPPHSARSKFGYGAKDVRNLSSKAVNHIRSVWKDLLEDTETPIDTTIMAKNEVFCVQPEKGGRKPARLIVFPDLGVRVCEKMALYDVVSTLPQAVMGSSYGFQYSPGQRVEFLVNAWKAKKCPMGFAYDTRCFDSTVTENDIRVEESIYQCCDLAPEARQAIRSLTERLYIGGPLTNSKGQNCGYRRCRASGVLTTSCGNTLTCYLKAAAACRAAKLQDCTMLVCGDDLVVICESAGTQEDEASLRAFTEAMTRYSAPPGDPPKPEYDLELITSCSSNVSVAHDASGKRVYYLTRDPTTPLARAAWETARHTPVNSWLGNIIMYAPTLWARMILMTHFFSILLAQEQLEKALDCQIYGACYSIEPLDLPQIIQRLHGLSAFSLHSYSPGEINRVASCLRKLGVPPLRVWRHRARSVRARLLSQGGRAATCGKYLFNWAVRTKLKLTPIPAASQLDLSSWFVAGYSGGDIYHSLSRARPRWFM
Method: HCVNS5B RdRp cloning, expression, and purification. The cDNA encoding the NS5B protein of HCV, genotype 1b, was cloned into the pET21a expression vector. The protein was expressed with an 18 amino acid C-terminal truncation to enhance the solubility. The E. coli competent cell line BL21(DE3) was used for expression of the protein. Cultures were grown at 37° C. for ˜4 hours until the cultures reached an optical density of 2.0 at 600 nm. The cultures were cooled to 20° C. and induced with 1 mM IPTG. Fresh ampicillin was added to a final concentration of 50 μg/ml and the cells were grown overnight at 20° C.
Cell pellets (3L) were lysed for purification to yield 15-24 mgs of purified NS5B. The lysis buffer consisted of 20 mM Tris-HCl, pH 7.4, 500 mM NaCl, 0.5% triton X-100, 1 mM DTT, 1 mM EDTA, 20% glycerol, 0.5 mg/ml lysozyme, 10 mM MgCl2, 15 ug/ml deoxyribonuclease I, and Complete TM protease inhibitor tablets (Roche). After addition of the lysis buffer, frozen cell pellets were resuspended using a tissue homogenizer. To reduce the viscosity of the sample, aliquots of the lysate were sonicated on ice using a microtip attached to a Branson sonicator. The sonicated lysate was centrifuged at 100,000×g for 1 hr at 4° C. and filtered through a 0.2 μm filter unit (Corning).
The protein was purified using three sequential chromatography steps: Heparin sepharose CL-6B, polyU sepharose 4B, and Hitrap SP sepharose (Pharmacia). The chromatography buffers were identical to the lysis buffer but contained no lysozyme, deoxyribonuclease I, MgCl2 or protease inhibitor and the NaCl concentration of the buffer was adjusted according to the requirements for charging the protein onto the column. Each column was eluted with a NaCl gradient which varied in length from 5-50 column volumes depending on the column type. After the final chromatography step, the resulting purity of the enzyme is >90% based on SDS-PAGE analysis. The enzyme was aliquoted and stored at −80° C.
Standard HCVNS5B RdRp enzyme assay. HCV RdRp genotype 1b assays were run in a final volume of 60 μl in 96 well plates (Costar 3912). The assay buffer is composed of 20 mM Hepes, pH 7.5, 2.5 mM KCl, 2.5 mM MgCl2, 1 mM DTT, 1.6 U RNAse inhibitor (Promega N2515), 0.1 mg/ml BSA (Promega R3961), and 2% glycerol. All compounds were serially diluted (3-fold) in DMSO and diluted further in water such that the final concentration of DMSO in the assay was 2%. HCV RdRp genotype 1b enzyme was used at a final concentration of 28 nM. A polyA template was used at 6 nM, and a biotinylated oligo-dT12 primer was used at 180 nM final concentration. Template was obtained commercially (Amersham 27-4110). Biotinylated primer was prepared by Sigma Genosys. 3H-UTP was used at 0.6 μCi (0.29 μM total UTP). Reactions were initiated by the addition of enzyme, incubated at 30° C. for 60 min, and stopped by adding 25 μl of 50 mM EDTA containing SPA beads (4 μg/μl, Amersham RPNQ 0007). Plates were read on a Packard Top Count NXT after >1 hr incubation at room temperature.
Modified HCVNS5B RdRp enzyme assay. A modified enzyme assay was performed essentially as described for the standard enzyme assay except for the following: The biotinylated oligo dT12 primer was precaptured on streptavidin-coated SPA beads by mixing primer and beads in assay buffer and incubating at room temperature for one hour. Unbound primer was removed after centrifugation. The primer-bound beads were resuspended in 20 mM Hepes buffer, pH 7.5 and used in the assay at final concentrations of 20 nM primer and 0.67 μg/μl beads. Order of addition in the assay: enzyme (14 nM) was added to diluted compound followed by the addition of a mixture of template (0.2 nM), 3H-UTP (0.6 μCi, 0.29 μM), and primer-bound beads, to initiate the reaction; concentrations given are final. Reactions were allowed to proceed for 4 hours at 30° C.
IC50 values for compounds were determined using seven different [I]. […]

HCV replicon cells = assay: HCV replicon FRET assay; assay type: cell-based
Description: FRET Assay Preparation. To perform the HCV FRET screening assay, 96-well cell culture plates were used. The FRET peptide (Anaspec, Inc.) (Taliani et al., Anal. Biochem. 1996, 240, 60-67) contains a fluorescence donor, EDANS, near one end of the peptide and an acceptor, DABCYL, near the other end. The fluorescence of the peptide is quenched by […] resonance energy transfer (RET) between the donor and the acceptor, but as the NS3 protease cleaves the peptide the products are released from RET quenching and the fluorescence of the donor becomes apparent. The assay reagent was made as follows: 5× cell Luciferase cell culture lysis reagent from Promega (#E153A) diluted to 1× with dH2O, NaCl added to 150 mM final, the FRET peptide diluted to 20 uM final from a 2 mM stock.
To prepare plates, HCV replicon cells, with or without a Renilla luciferase reporter gene, were trypsinized and placed into each well of a 96-well plate with titrated test compounds added in columns 3 through 12; columns 1 and 2 contained a control compound (HCV protease inhibitor), and the bottom row contained cells without compound. The plates were then placed in a CO2 incubator at 37° C.
Assays. Subsequent to addition of the test compounds described above (FRET Assay Preparation), at various times the plate was removed and Alamar blue solution (Trek Diagnostics, #00-100) was added per well as a measure of cellular toxicity. After reading in a Cytoflour 4000 instrument (PE Biosystems), plates were rinsed with PBS and then used for FRET assay by the addition of 30 ul of the FRET peptide assay reagent described above (FRET Assay Preparation) per well. The plate was then placed into the Cytoflour 4000 instrument which had been set to 340 excite/490 emission, automatic mode for 20 cycles and the plate read in a kinetic mode. Typically, the signal to noise using an endpoint analysis after the reads was at least three-fold. Alternatively, after Alamar blue reading, plates were rinsed with PBS, 50 ul of DMEM (high glucose) without phenol red was added and plates were then used for luciferase assay using the Promega Dual-Glo Luciferase Assay System.
Compound analysis was determined by quantification of the relative HCV replicon inhibition and the relative cytotoxicity values. To calculate cytoxicity values, the average Alamar Blue fluorescence signals from the control wells were set as 100% non-toxic. The individual signals in each of the compound test wells were then divided by the average control signal and multiplied by 100% to determine […]. To calculate the HCV replicon inhibition values, an average background value was obtained from the two wells containing the highest amount of HCV protease inhibitor at the end of the assay period. These numbers were similar to those obtained from naïve Huh-7 cells.
The background numbers were then subtracted from the average signal obtained from the control wells and this number was used as 100% activity. The individual signals in each of the compound test wells were then divided by the averaged control values after background subtraction and multiplied by 100% to determine percent activity. EC50 values for a protease inhibitor titration were calculated as the concentration which caused a 50% reduction in FRET or luciferase activity. The two numbers generated for the compound plate, percent cytoxicity and percent activity were used to determine compounds of interest for further analysis.

[2] = Hepatitis C virus, FRET assay, HCV replicon cells, read-out: EC50

Row | SMILES | IC50 [1] | EC50 (HCV replicon cells; [2]) | EC50 (HCV replicon cells; Hepatitis C virus) | EC50 (HCV replicon cells; FRET assay, HCV replicon cells, read-out: EC50)
1 | C[C@@H]1CN(C(=O)C23CC2c2cc(O)ccc2-c2c(C4CCCCC4)c4ccc(C(=O)NS(=O)(=O)N(C)C)cc4n2C3)C[C@H](C)N1C (stereo partly shown) | 1 to 500 nM | 1 to 500 nM |  | 
2 | C[C@@H]1CN(C(=O)C23CC2c2cc(OCc4ccccc4)ccc2-c2c(C4CCCCC4)c4ccc(C(=O)NS(=O)(=O)N(C)C)cc4n2C3)C[C@H](C)N1C (stereo partly shown) | 1 to 500 nM | 1 to 500 nM |  | 
3 | COc1ccc2c(c1)C1CC1(C(=O)N1C[C@@H](C)N(C(C)C)[C@@H](C)C1)Cn1c-2c(C2CCCCC2)c2ccc(C(=O)NS(=O)(=O)N(C)C)cc21 (stereo partly shown) | 1 to 500 nM | 1 to 500 nM |  | 
4 | COc1ccc2c(c1)C1CC1(C(=O)N1C[C@@H](C)N(C)[C@@H](C)C1)Cn1c-2c(C2CCCCC2)c2ccc(C(=O)NS(=O)(=O)C3CC3)cc21 (stereo partly shown) | 1 to 500 nM | 1 to 500 nM |  | 
5 | COc1ccc2c(c1)C1CC1(C(=O)N1C[C@@H](C)N(C)[C@@H](C)C1)Cn1c-2c(C2CCCCC2)c2ccc(C(=O)NS(=O)(=O)N(C)C)cc21 (stereo partly shown) | 1 to 500 nM |  | 1 to 500 nM | 
6 | COc1ccc2c(c1)[C@@H]1C[C@]1(C(=O)N1C[C@@H](C)N(C)[C@@H](C)C1)Cn1c-2c(C2CCCCC2)c2ccc(C(=O)NS(=O)(=O)N(C)C)cc21 | 1 to 500 nM |  | 1 to 500 nM | 
7 | COc1ccc2c(c1)[C@H]1C[C@@]1(C(=O)N1C[C@@H](C)N(C)[C@@H](C)C1)Cn1c-2c(C2CCCCC2)c2ccc(C(=O)NS(=O)(=O)N(C)C)cc21 | 1 to 500 nM |  | 1 to 500 nM | 
8 | COc1cccc2c1C1CC1(C(=O)N1C[C@@H](C)N(C)[C@@H](C)C1)Cn1c-2c(C2CCCCC2)c2ccc(C(=O)NS(=O)(=O)N(C)C)cc21 (stereo partly shown) | 1 to 500 nM | 1 to 500 nM |  | 
9 | COc1ccc2c(c1)C1CC1(C(=O)N1C[C@@H](C)N(C(C)=O)[C@@H](C)C1)Cn1c-2c(C2CCCCC2)c2ccc(C(=O)NS(=O)(=O)N(C)C)cc21 (stereo partly shown) | 1 to 500 nM |  | 1 to 500 nM | 
10 | COc1ccc2c(c1)C1CC1(C(=O)N1C[C@@H](C)N(C)[C@@H](C)C1)Cn1c-2c(C2CCCCC2)c2ccc(C(=O)NS(=O)(=O)N3CCC3)cc21 (stereo partly shown) | 1 to 500 nM | 1 to 500 nM |  | 
11 | COc1ccc2c(c1)C1CC1(C(=O)N1[C@H](C)CN(Cc3ccccc3)C[C@@H]1C)Cn1c-2c(C2CCCCC2)c2ccc(C(=O)NS(=O)(=O)N(C)C)cc21 (stereo partly shown) | 1000 to 10000 nM | 500 to 1000 nM |  | 
12 | COc1ccc2c(c1)C1CC1(C(=O)N1C[C@@H](C)N(C)[C@@H](C)C1)Cn1c-2c(C2CCCCC2)c2ccc(C(=O)NS(=O)(=O)C(C)C)cc21 (stereo partly shown) | 1 to 500 nM | 1 to 500 nM |  | 
13 | COc1ccc2c(c1)C1CC1(C(=O)N1C[C@@H](C)N(C)[C@@H](C)C1)Cn1c-2c(C2CCCCC2)c2ccc(C(=O)NS(C)(=O)=O)cc21 (stereo partly shown) [drawing 31] | 1 to 500 nM | 1 to 500 nM |  | 
14 | COc1ccc2c(c1)C1CC1(C(=O)N1C[C@@H](C)N(C)[C@@H](C)C1)Cn1c-2c(C2CCCCC2)c2ccc(C(=O)NS(C)(=O)=O)cc21 (stereo partly shown) [drawing 34] | 1 to 500 nM |  |  | 1 to 500 nM
